Square brackets hold non-standard residues; d marks the D form. Peptide text beside a SMILES is read from it. * marks the point of attachment. Octanoyl = CCCCCCCC(=O)*

The values below come from US12552846B2, “Modified BCL9 mimetic peptides” (Sapience Therapeutics, Inc., priority 2019, dated 2026).

The experiment relates to HL60 promyelocytic leukemia cells. The experiment can be described thus: Cytotoxicity assay in HL60 cells (Annexin V FITC / PI flow cytometry). Format: cell-based. To be noted: 48 hours, 0-80 μM, % Viability (Annexin V low, PI low). As for the experimental part: We examined the cytotoxicity of peptides BCL-26 and BCL-27 using an assay in HL60 promyelocytic leukemia cells. HL60 PML suspension cells were set at a density of 3.5×10^3 cells/well in 150 μL of RPMI+1.5% fetal bovine serum (FBS) in a 96 well dish. BCL-26 or BCL-27, reconstituted at a concentration of 10 mg/mL in 20 mM His, pH 7.5, was added to each well at a volume of 50 μL to a final concentration range of 0-80 μM. Cells were incubated with peptide for 48 hours at 37° C. Cell viability was quantified by flow cytometry using abcam Annexin V FITC apoptosis detection kit. Briefly, cells were washed with PBS and resuspended in 1× assay buffer containing Annexin V FITC and propidium iodide (PI). Annexin V detects apoptotic cells, and PI stains dead cells. After staining, apoptotic cells show green fluorescence, dead cells show red and green fluorescence, and live cells show little or no fluorescence. Cells were selected for analysis based on forward scatter (FSC) vs. side scatter (SSC), and analyzed by BD Accuri C6 Plus flow cytometer to detect Annexin V-FITC binding (Ex=488 nm; Em=530 nm) using FITC signal detector and PI staining by the phycoerythrnn emission signal detector. Percentage of Annexin V^low and PI^low were quantified and presented as % Viability.
We examined the cytotoxicity of additional retro inverso and mixed chirality BCL9 mimetic peptides in HL60 cells using the assay described above.
For orientation: In flow cytometry, cells or beads pass a laser one at a time.

In the case of `CC(C)C[C@@H](NC(=O)[C@@H](Cc1ccccc1)NC(=O)[C@H](N)Cc1c[nH]c2ccccc12)C(=O)N[C@H](C)C(=O)N[C@H](CCCNC(=N)N)C(=O)N[C@H](CCC(N)=O)C(=O)N[C@H](CC(C)C)C(=O)N[C@H](C)C(=O)N[C@H](CCCNC(=N)N)C(=O)N[C@H](CC(C)C)C(=O)N[C@H](C)C(=O)N[C@H](CCC(N)=O)C(=O)N[C@H](CC(C)C)C(=O)N[C@H](C)C(=O)N[C@H](CCCCN)C(=O)N[C@H](CC(C)C)C(=O)N[C@@H](C(=O)N1CCC[C@@H]1C(=O)N[C@@H](C(=O)O)C(C)C)[C@H](C)O` [BCL-81] (H-[dW][dF][dL][dA][dR][dQ][dL][dA][dR][dL][dA][dQ][dL][dA][dK][dL][dT][dP][dV]-OH; N-terminus and C-terminus assumed), the concentration for a half-maximal effect (EC50) lay within 2000 to 10000 nM.
Molecule `CC(C)C[C@@H](NC(=O)[C@@H](Cc1c[nH]c2ccccc12)NC(=O)[C@@H](N)Cc1c[nH]c2ccccc12)C(=O)N[C@H](C)C(=O)N[C@H](CCCNC(=N)N)C(=O)N[C@H](CCC(N)=O)C(=O)N[C@H](CC(C)C)C(=O)N[C@H](C)C(=O)N[C@H](CCCNC(=N)N)C(=O)N[C@H](CC(C)C)C(=O)N[C@H](CCCNC(=N)N)C(=O)N[C@H](CCC(N)=O)C(=O)N[C@H](CC(C)C)C(=O)N[C@H](C)C(=O)N[C@H](CCCCN)C(=O)N[C@H](CC(C)C)C(=O)N[C@@H](C(=O)N1CCC[C@@H]1C(=O)N[C@@H](C(=O)O)C(C)C)[C@H](C)O` [BCL-96] (H-W[dW][dL][dA][dR][dQ][dL][dA][dR][dL][dR][dQ][dL][dA][dK][dL][dT][dP][dV]-OH; N-terminus and C-terminus assumed) gave an EC50 of less than 2000 nM.
The value for `CC(C)C[C@@H](NC(=O)[C@@H](CCCNC(=N)N)NC(=O)[C@@H](C)NC(=O)[C@@H](CC(C)C)NC(=O)[C@@H](CCC(N)=O)NC(=O)[C@@H](CCCNC(=N)N)NC(=O)[C@H](NC(=O)[C@@H](CC(C)C)NC(=O)[C@@H](Cc1c[nH]c2ccccc12)NC(=O)[C@H](N)Cc1c[nH]c2ccccc12)C(C)C)C(=O)N[C@H](C)C(=O)N[C@H](CCC(N)=O)C(=O)N[C@H](CC(C)C)C(=O)N[C@H](C)C(=O)N[C@H](CCCCN)C(=O)N[C@H](CC(C)C)C(=O)N[C@@H](C(=O)N1CCC[C@@H]1C(=O)N[C@@H](C(=O)O)C(C)C)[C@H](C)O` [BCL-91a] (H-[dW][dW][dL][dV][dR][dQ][dL][dA][dR][dL][dA][dQ][dL][dA][dK][dL][dT][dP][dV]-OH; N-terminus and C-terminus assumed) was less than 2000 nM; that for `CC(C)C[C@@H](NC(=O)[C@@H](CCCNC(=N)N)NC(=O)[C@@H](C)NC(=O)[C@@H](CC(C)C)NC(=O)[C@@H](CCC(N)=O)NC(=O)[C@@H](CCCNC(=N)N)NC(=O)[C@@H](CCC(=O)O)NC(=O)[C@@H](CC(C)C)NC(=O)[C@@H](Cc1c[nH]c2ccccc12)NC(=O)[C@H](N)Cc1c[nH]c2ccccc12)C(=O)N[C@H](C)C(=O)N[C@H](CCC(N)=O)C(=O)N[C@H](CC(C)C)C(=O)N[C@H](C)C(=O)N[C@H](CCCCN)C(=O)N[C@H](CC(C)C)C(=O)N[C@@H](C(=O)N1CCC[C@@H]1C(=O)N[C@@H](C(=O)O)C(C)C)[C@H](C)O` [BCL-83] (H-[dW][dW][dL][dE][dR][dQ][dL][dA][dR][dL][dA][dQ][dL][dA][dK][dL][dT][dP][dV]-OH; N-terminus and C-terminus assumed) was 2000 to 10000 nM.
The value for `CC(C)C[C@@H](NC(=O)[C@@H](Cc1c[nH]c2ccccc12)NC(=O)[C@@H](N)Cc1c[nH]c2ccccc12)C(=O)N[C@H](C)C(=O)N[C@H](CCCNC(=N)N)C(=O)N[C@H](CCC(N)=O)C(=O)N[C@H](CC(C)C)C(=O)N[C@H](CCC(=O)O)C(=O)N[C@H](CCCNC(=N)N)C(=O)N[C@H](CC(C)C)C(=O)N[C@H](C)C(=O)N[C@H](CCCNC(=N)N)C(=O)N[C@H](CC(C)C)C(=O)N[C@H](C)C(=O)N[C@H](CCCCN)C(=O)N[C@H](CC(C)C)C(=O)N[C@@H](C(=O)N1CCC[C@@H]1C(=O)N[C@@H](C(=O)O)C(C)C)[C@H](C)O` [BCL-98] (H-W[dW][dL][dA][dR][dQ][dL][dE][dR][dL][dA][dR][dL][dA][dK][dL][dT][dP][dV]-OH; N-terminus and C-terminus assumed) was 2000 to 10000 nM; that for `CC(C)C[C@@H](NC(=O)[C@@H](CCCNC(=N)N)NC(=O)[C@@H](C)NC(=O)[C@@H](CC(C)C)NC(=O)[C@@H](CCC(N)=O)NC(=O)[C@@H](CCCNC(=N)N)NC(=O)[C@H](NC(=O)[C@@H](CC(C)C)NC(=O)[C@@H](Cc1c[nH]c2ccccc12)NC(=O)[C@H](Cc1c[nH]c2ccccc12)NC(=O)[C@H](N)Cc1ccccc1)C(C)C)C(=O)N[C@H](C)C(=O)N[C@H](CCC(N)=O)C(=O)N[C@H](CC(C)C)C(=O)N[C@H](C)C(=O)N[C@H](CCCCN)C(=O)N[C@H](CC(C)C)C(=O)N[C@@H](C(=O)N1CCC[C@@H]1C(=O)N[C@@H](C(=O)O)C(C)C)[C@H](C)O` [BCL-131] (H-[dF]W[dW][dL][dV][dR][dQ][dL][dA][dR][dL][dA][dQ][dL][dA][dK][dL][dT][dP][dV]-OH; N-terminus and C-terminus assumed) was less than 2000 nM.
As for `CC(C)C[C@@H](NC(=O)[C@@H](Cc1c[nH]c2ccccc12)NC(=O)[C@H](N)Cc1c[nH]c2ccccc12)C(=O)N[C@H](C)C(=O)N[C@H](CCCNC(=N)N)C(=O)N[C@H](CCC(N)=O)C(=O)N[C@H](CC(C)C)C(=O)N[C@H](CCC(=O)O)C(=O)N[C@H](CCCNC(=N)N)C(=O)N[C@H](CC(C)C)C(=O)N[C@H](C)C(=O)N[C@H](CCC(N)=O)C(=O)N[C@H](CC(C)C)C(=O)N[C@H](C)C(=O)N[C@H](CCCCN)C(=O)N[C@H](CC(C)C)C(=O)N[C@@H](C(=O)N1CCC[C@@H]1C(=O)N[C@@H](C(=O)O)C(C)C)[C@H](C)O` [BCL-76] (H-[dW][dW][dL][dA][dR][dQ][dL][dE][dR][dL][dA][dQ][dL][dA][dK][dL][dT][dP][dV]-OH; N-terminus and C-terminus assumed), the concentration for a half-maximal effect (EC50) was greater than 10000 nM.
`CC(C)C[C@@H](NC(=O)[C@@H](Cc1c[nH]c2ccccc12)NC(=O)[C@H](N)Cc1c[nH]c2ccccc12)C(=O)N[C@H](C)C(=O)N[C@H](CCCNC(=N)N)C(=O)N[C@H](CCC(N)=O)C(=O)N[C@H](CC(C)C)C(=O)N[C@H](C)C(=O)N[C@H](CCCNC(=N)N)C(=O)N[C@H](CC(C)C)C(=O)N[C@H](CCCCN)C(=O)N[C@H](CCC(N)=O)C(=O)N[C@H](CC(C)C)C(=O)N[C@H](C)C(=O)N[C@H](CCCCN)C(=O)N[C@H](CC(C)C)C(=O)N[C@@H](C(=O)N1CCC[C@@H]1C(=O)N[C@@H](C(=O)O)C(C)C)[C@H](C)O` [BCL-89] (H-[dW][dW][dL][dA][dR][dQ][dL][dA][dR][dL][dK][dQ][dL][dA][dK][dL][dT][dP][dV]-OH; N-terminus and C-terminus assumed) displayed an EC50 of 2000 to 10000 nM.
Turning to `CC(C)C[C@@H](NC(=O)[C@@H](Cc1c[nH]c2ccccc12)NC(=O)[C@H](CCCNC(=N)N)NC(=O)[C@H](N)Cc1ccccc1)C(=O)N[C@H](C)C(=O)N[C@H](CCCNC(=N)N)C(=O)N[C@H](CCC(N)=O)C(=O)N[C@H](CC(C)C)C(=O)N[C@H](C)C(=O)N[C@H](CCCNC(=N)N)C(=O)N[C@H](CC(C)C)C(=O)N[C@H](C)C(=O)N[C@H](CCC(N)=O)C(=O)N[C@H](CC(C)C)C(=O)N[C@H](C)C(=O)N[C@H](CCCCN)C(=O)N[C@H](CC(C)C)C(=O)N[C@@H](C(=O)N1CCC[C@@H]1C(=O)N[C@@H](C(=O)O)C(C)C)[C@H](C)O` [BCL-129] (H-[dF]R[dW][dL][dA][dR][dQ][dL][dA][dR][dL][dA][dQ][dL][dA][dK][dL][dT][dP][dV]-OH; N-terminus and C-terminus assumed), the 50% effective concentration (EC50) is less than 2000 nM.
To `CC(C)C[C@@H](NC(=O)[C@@H](Cc1c[nH]c2ccccc12)NC(=O)[C@H](N)Cc1c[nH]c2ccccc12)C(=O)N[C@H](C)C(=O)N[C@H](CCCNC(=N)N)C(=O)N[C@H](CCC(N)=O)C(=O)N[C@H](CC(C)C)C(=O)N[C@H](CCC(=O)O)C(=O)N[C@H](CCCNC(=N)N)C(=O)N[C@H](CC(C)C)C(=O)N[C@H](CCCNC(=N)N)C(=O)N[C@H](CCCNC(=N)N)C(=O)N[C@H](CC(C)C)C(=O)N[C@H](C)C(=O)N[C@H](CCCCN)C(=O)N[C@H](CC(C)C)C(=O)N[C@@H](C(=O)N1CCC[C@@H]1C(=O)N[C@@H](C(=O)O)C(C)C)[C@H](C)O` [BCL-88] (H-[dW][dW][dL][dA][dR][dQ][dL][dE][dR][dL][dR][dR][dL][dA][dK][dL][dT][dP][dV]-OH; N-terminus and C-terminus assumed) belongs less than 2000 nM; to `CCCCCCCC(=O)N1CCC[C@@H]1C(=O)N[C@H](CO)C(=O)N[C@H](CC(=O)O)C(=O)NCC(=O)N[C@H](CCCNC(=N)N)C(=O)NCC(=O)N[C@H](Cc1c[nH]c2ccccc12)C(=O)N[C@H](Cc1c[nH]c2ccccc12)C(=O)N[C@H](CC(C)C)C(=O)N[C@@H](C(=O)N[C@H](CCCNC(=N)N)C(=O)N[C@H](CCC(N)=O)C(=O)N[C@H](CC(C)C)C(=O)N[C@H](C)C(=O)N[C@H](CCCNC(=N)N)C(=O)N[C@H](CC(C)C)C(=O)N[C@H](C)C(=O)N[C@H](CCC(N)=O)C(=O)N[C@H](CC(C)C)C(=O)N[C@H](C)C(=O)N[C@H](CCCCN)C(=O)N[C@H](CC(C)C)C(=O)N[C@@H](C(=O)N1CCC[C@@H]1C(=O)N[C@@H](C(=O)O)C(C)C)[C@H](C)O)C(C)C` [BCL-136a] (Octanoyl-[dP][dS][dD]G[dR]G[dW][dW][dL][dV][dR][dQ][dL][dA][dR][dL][dA][dQ][dL][dA][dK][dL][dT][dP][dV]-OH; C-terminus assumed), less than 2000 nM.

Usually EC50 stands for the midpoint of the concentration-response curve.
